Experimental data published in US7144585B1, “Cilostazol preparation” (Otsuka Pharmaceutical Co., Ltd., priority 1999, dated 2006).
Where two headings read alike, the source gives them in different places.

What was measured:
[1] = Absorption test at upper and lower portions of the digestive tract (Test Example 8); format: in vivo; settings: rats; for AUC: read-out: AUCO-2 hr
Method: (§1) Preparations of Examples 1, 2, 4 and 5 and Comparative Example 1 were directly administered in a large intestine loop of female rats (3 or 4 rats per group) in the amount of 100 mg/kg calculated on the basis of cilostazol (CLZ). Then, blood was collected with a lapse of time and cilostazol concentration in blood was measured. An average cilostazol concentration in blood is shown in Table 10 and pharmacokinetic parameters after administration are shown in Table 11.
Absorption Test of Slightly Soluble Drug at Upper and Lower Portions of the Digestive Tract.
In the same manner as in Test Example 1, preparations of Example 2 and Comparative Examples 1 and 5 were directly administered in the duodenum and the large intestine of rats. Then, blood was collected with a lapse of time and cilostazol concentration in blood was measured.

[2] = Absorption test of cilostazol into the large intestine (Test Example 1); format: in vivo, rats
Method: Absorption Test of Cilostazol into the Large Intestine
as §1

[3] = Cilostazol dissolution test, Paddle method, 0.3% SLS (Test Example 2); format: physicochemical
Method: Preparations of Examples 1, 2 and 4 and Comparative Example 1 were weighed in the amount of 100 mg calculated on the basis of cilostazol and subjected to a dissolution test under the following conditions. To evaluate the dissolution rate, the dissolution percentage was compared after two minutes had passed since the beginning of the test.
Conditions of Dissolution Test
Dissolution test solution: 900 mL of aqueous 0.3% sodium lauryl sulfate solution
Amount of sample: amount corresponding to 100 mg of cilostazol per vessel

[4] = directly administered in the duodenum
[5] = rat, blood, female rats, large intestine loop, 100 mg/kg as CLZ

| SMILES | AUC ([1]; female, rat, blood, 100 mg/kg, directly administered in the large intestine) | Cmax ([1]; female, rat, blood, 100 mg/kg, directly administered in the large intestine, read-out: Cmax) | AUCO-2 hr [1, 4] | Cmax [1, 4] | concentration at 0 hr ([2]; rat, blood, other: directly administered in a large intestine loop, female rats, direct administration in large intestine loop, 100 mg/kg as CLZ, time after administration 0 hr) | concentration at 0.083 hr ([2]; rat, blood, other: directly administered in a large intestine loop, female rats, large intestine loop, 100 mg/kg as CLZ, 0.083 hr after administration) | concentration at 0.25 hr ([2]; rat, blood, other: directly administered in a large intestine loop, female rats, large intestine loop, 100 mg/kg as CLZ, 0.25 hr after administration) | concentration at 0.5 hr ([2]; rat, blood, other: directly administered in a large intestine loop, female rats, large intestine loop, 100 mg/kg as CLZ, 0.5 hr after administration) | concentration at 1 hr ([2]; rat, blood, other: directly administered in a large intestine loop, female rats, large intestine loop, 100 mg/kg as CLZ, 1.0 hr after administration) | concentration at 2 hr ([2]; rat, blood, other: directly administered in a large intestine loop, female rats, large intestine loop, 100 mg/kg as CLZ, 2.0 hr after administration) | Cmax [2, 5] | Tmax [2, 5] | AUC(0-t) ([2]; rat, blood, female rats, large intestine loop, 100 mg/kg as CLZ, read-out: AUC0–2 hr) | blood concentration attained (in words) ([2]; rats, large intestine, within two hours after administration) | dissolution rate / dissolution percentage (in words) ([3]; 0.3% SLS, Paddle 75 rpm) | Dissolution percentage after 2 minutes ([3]; 900 mL aqueous 0.3% sodium lauryl sulfate, Paddle method 75 rpm, 100 mg cilostazol per vessel) | AUC ([1]; female, rat, blood, 100 mg/kg, directly administered in the duodenum) | Cmax ([1]; female, rat, blood, 100 mg/kg, directly administered in the duodenum, read-out: Cmax) | AUCO-2 hr ([1]; directly administered in the large intestine) |
| --- | --- | --- | --- | --- | --- | --- | --- | --- | --- | --- | --- | --- | --- | --- | --- | --- | --- | --- | --- |
| O=C1CCc2cc(OCCCCc3nnnn3C3CCCCC3)ccc2N1 [Comp. Example 5, cilostazol] | 236 ng·h/mL | 168 ng/mL | 3682 ng·h/mL | 3002 ng/mL | – | – | – | – | – | – | – | – | – | – | – | – | – | – | – |
| O=C1CCc2cc(OCCCCc3nnnn3C3CCCCC3)ccc2N1 [Comp. Example 1, cilostazol] | – | – | – | – | 0 ng/mL | 15 ng/mL | 26 ng/mL | 51 ng/mL | 100 ng/mL | 170 ng/mL | 170 ng/mL | 2 h | 186 ng·h/mL | sufficient blood concentration was not obtained | low dissolution rate | 22.7% | 2590 ng·h/mL | 1900 ng/mL | 186 ng·h/mL |
